In the supplement of paper PMC11061612:

What was measured:
WM278 (Melanoma) = test: combination Emax (second highest fraction inhibited in the dose matrix, 72 h); higher = more inhibition; extreme values may be limits of the assay
Outline: (§1)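 Cell lines in DMEM/F12 or RPMI with 10% FBS were plated in 1536-well plates, held 24 hours at 37°C, 5% CO2, then given two-drug dose matrices for 72 hours (DMSO typically 0.2%). Viability was read by CellTiter-Glo 2.0 luminescence and scaled as inhibition from 0 (vehicle wells) to 1 (blank wells). Combination Emax is the second-highest inhibition in the matrix; Bliss excess is observed combination effect minus expected EA + EB − EA·EB, EA and EB being single-agent effects.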

[1] = test system: RERF-LC-Sq1 (Squamous Cell Lung Carcinoma); test: as above
Outline: as §1

[2] = test system: CAL-120 (Breast Carcinoma); test: as above
Outline: as §1

[3] = test system: LK-2 (Squamous Cell Lung Carcinoma); test: as above
Outline: as §1

[4] = test system: REH (B-Lymphoblastic Leukemia); test: as above
Outline: as §1

[5] = test system: COLO-680N (Esophageal Squamous Cell Carcinoma); test: as above
Outline: as §1

SF268 (Low Grade Glioma) = test: as above
Outline: as §1

[6] = test system: MFE-280 (Endometrial Carcinoma); test: as above
Outline: as §1

LN-229 (Glioblastoma) = test: as above
Outline: as §1

[7] = test system: KE-37 (T-Lymphoblastic Leukemia); test: as above
Outline: as §1

[8] = test system: 23132-87 (Gastric Carcinoma); test: as above
Outline: as §1

SF539 (Glioblastoma) = test: as above
Outline: as §1

[9] = test system: NCI-H2342 (Lung Adenocarcinoma); test: as above
Outline: as §1

[10] = test system: PANC-03-27 (Pancreatic Carcinoma); test: as above
Outline: as §1

[11] = test system: HEC-1 (Endometrial Carcinoma); test: as above
Outline: as §1

[12] = test system: SK-PN-DW (Other Solid Carcinomas); test: as above
Outline: as §1

IST-MES1 (Mesothelioma) = test: as above
Outline: as §1

[13] = test system: CAL-120 (Breast Carcinoma); test: Bliss excess, mean over the matrix (fraction); higher = more synergy
Outline: as §1

[14] = test system: VAL (B-Cell Non-Hodgkin's Lymphoma); test: as above
Outline: as §1

[15] = test system: OPM-2 (Plasma Cell Myeloma); test: as above
Outline: as §1
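For Bliss excess, mean over the matrix in this document: after 72 h of two-drug dosing.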

Row | SMILES | combination Emax (WM278 (Melanoma)) | combination Emax [1] | combination Emax [2] | combination Emax [3] | combination Emax [4] | combination Emax [5] | combination Emax (SF268 (Low Grade Glioma)) | combination Emax [6] | combination Emax (LN-229 (Glioblastoma)) | combination Emax [7] | combination Emax [8] | combination Emax (SF539 (Glioblastoma)) | combination Emax [9] | combination Emax [10] | combination Emax [11] | combination Emax [12] | combination Emax (IST-MES1 (Mesothelioma)) | Bliss excess [13] | Bliss excess [14] | Bliss excess [15]
1 | Cn1cnc2c(F)c(Nc3ccc(Br)cc3Cl)c(C(=O)NOCCO)cc21 [Selumetinib] + C[C@@H]1COCCN1C2=NC(=NC(=C2)C3(CC3)[S@](=N)(=O)C)C4=C5C=CNC5=NC=C4 [AZD6738] (first compound max 10 µM, 7x7, partner max 10 µM) | 0.587 | 0.786 | 0.436 | 0.39 | 0.684 | 0.203 | 0.49 | 0.151 | 0.552 | 0.959 | 0.429 | 0.855 | 0.483 | 0.599 | 0.298 | 0.915 | 0.269 | 0.0117 | -0.0657 | -0.0263
2 | CC1(C)CCC(CN2CCN(c3ccc(C(=O)NS(=O)(=O)c4ccc(NCC5CCOCC5)c([N+](=O)[O-])c4)c(Oc4cnc5[nH]ccc5c4)c3)CC2)=C(c2ccc(Cl)cc2)C1 [Venetoclax] + C=CCn1c(=O)c2cnc(Nc3ccc(N4CCN(C)CC4)cc3)nc2n1-c1cccc(C(C)(C)O)n1 [AZD1775] (first compound max 1 µM, partner max 1 µM) | 0.436 | 0.586 | 0.31 | 0.932 | 1 | 0.257 | 0.524 | 0.621 | 0.292 | 1 | 0.36 | 0.972 | 0.268 | 0.855 | 0.182 | 0.955 | 0.254 | -0.0309 | 0.0103 | 0.0966
3 | Cc1cc2ncnn2cc1Nc1ncc2c(n1)n(C1CCOCC1)c(=O)n2C [AZD7648] + C[C@@H]1COCCN1C2=NC(=NC(=C2)C3(CC3)[S@](=N)(=O)C)C4=C5C=CNC5=NC=C4 [AZD6738] (first compound max 10 µM, 7x7, partner max 10 µM) | 0.33 | 0.804 | 0.325 | 0.39 | 0.771 | 0.265 | 0.303 | 0.337 | 0.525 | 1 | 0.841 | 0.85 | 0.24 | 0.824 | 0.423 | 0.943 | 0.313 | 0.0192 | -0.0813 | 0.0254
4 | CC1(C)CCC(CN2CCN(c3ccc(C(=O)NS(=O)(=O)c4ccc(NCC5CCOCC5)c([N+](=O)[O-])c4)c(Oc4cnc5[nH]ccc5c4)c3)CC2)=C(c2ccc(Cl)cc2)C1 [Venetoclax] + Cn1cnc2c(F)c(Nc3ccc(Br)cc3Cl)c(C(=O)NOCCO)cc21 [Selumetinib] (first compound max 1 µM, 7x7, partner max 3 µM) | 0.633 | 0.312 | 0.106 | 0.172 | 0.897 | 0.159 | 0.157 | 0.18 | 0.3 | 0.352 | 0.0843 | 0.217 | 0.193 | 0.684 | 0.0851 | 0.806 | 0.161 | -0.0174 | -0.0069 | -0.0093
5 | COc1cccc(OCCCN)c1-c1cc(Nc2cnc(C#N)cn2)n[nH]1 [Prexasertib] + Cc1cc2ncnn2cc1Nc1ncc2c(n1)n(C1CCOCC1)c(=O)n2C [AZD7648] (first compound max 1 µM, 7x7, partner max 10 µM) | 0.596 | 0.855 | 0.512 | 0.755 | 0.992 | 0.37 | 0.48 | 0.405 | 0.725 | 1 | 0.939 | 0.985 | 0.309 | 0.898 | 0.53 | 0.931 | 0.355 | 0.0045 | -0.0204 | -0.0341
6 | CC1(C)CCC(CN2CCN(c3ccc(C(=O)NS(=O)(=O)c4ccc(NCC5CCOCC5)c([N+](=O)[O-])c4)c(Oc4cnc5[nH]ccc5c4)c3)CC2)=C(c2ccc(Cl)cc2)C1 [Venetoclax] + CCN(CCO)CCCOc1ccc2c(Nc3cc(CC(=O)Nc4cccc(F)c4)[nH]n3)ncnc2c1 [AZD2811] (first compound max 1 µM, 7x7, partner max 1 µM) | 0.337 | 0.361 | 0.153 | 0.851 | 1 | 0.187 | 0.328 | 0.371 | 0.208 | 1 | 0.152 | 0.481 | 0.217 | 0.673 | 0.16 | 0.872 | 0.198 | -0.014 | 0.0158 | 0.085
7 | COc1cccc(OCCCN)c1-c1cc(Nc2cnc(C#N)cn2)n[nH]1 [Prexasertib] + C[C@@H]1COCCN1C2=NC(=NC(=C2)C3(CC3)[S@](=N)(=O)C)C4=C5C=CNC5=NC=C4 [AZD6738] (first compound max 1 µM, 7x7, partner max 10 µM) | 0.569 | 0.899 | 0.446 | 0.689 | 1 | 0.416 | 0.514 | 0.398 | 0.791 | 1 | 0.908 | 0.972 | 0.294 | 0.902 | 0.74 | 0.937 | 0.278 | 0.0093 | -0.0637 | -0.0663
8 | Cc1cc2ncnn2cc1Nc1ncc2c(n1)n(C1CCOCC1)c(=O)n2C [AZD7648] + O=C(c1cc(Cc2n[nH]c(=O)c3ccccc23)ccc1F)N1CCN(C(=O)C2CC2)CC1 [Olaparib] (first compound max 10 µM, 7x7, partner max 10 µM) | 0.0954 | 0.314 | 0.149 | 0.335 | 0.187 | 0.101 | 0.117 | 0.434 | 0.0989 | 0.585 | 0.239 | 0.406 | 0.12 | 0.185 | 0.114 | 0.395 | 0.234 | -0.0322 | 0.0295 | -0.0373
9 | CN(CCO)CC[C@H](CSc1ccccc1)Nc1ccc(S(=O)(=O)NC(=O)c2ccc(N3CCC([C@@H](O)c4ccccc4-c4ccc(Cl)cc4)CC3)cc2)cc1S(=O)(=O)C(F)(F)F [AZD4320] + CN(C)CCCOc1ccc(-c2ccc3ncc4c(c3c2)n(C2CCOCC2)c(=O)n4C)cn1 [AZD0156] (first compound max 1 µM, 7x7, partner max 1 µM) | 0.568 | 0.194 | 0.744 | 0.712 | 1 | 0.137 | 0.291 | 0.891 | 0.142 | 1 | 0.148 | 0.27 | 0.27 | 0.33 | 0.372 | 0.326 | 0.104 | -0.0225 | 0.0174 | 0.0221
10 | CCN(CCO)CCCOc1ccc2c(Nc3cc(CC(=O)Nc4cccc(F)c4)[nH]n3)ncnc2c1 [AZD2811] + C=CCn1c(=O)c2cnc(Nc3ccc(N4CCN(C)CC4)cc3)nc2n1-c1cccc(C(C)(C)O)n1 [AZD1775] (first compound max 1 µM, partner max 1 µM) | 0.171 | 0.68 | 0.368 | 0.887 | 0.741 | 0.178 | 0.245 | 0.521 | 0.218 | 1 | 0.656 | 1 | 0.262 | 0.899 | 0.141 | 0.899 | 0.27 | -0.0576 | -0.087 | -0.0606
11 | Cc1c2c(nn1C)CSCc1cc(n(C)n1)CSc1cc(c3ccccc3c1)OCCCc1c(C(=O)O)n(C)c3c-2c(Cl)ccc13 [AZD5991] + CC1(C)CCC(CN2CCN(c3ccc(C(=O)NS(=O)(=O)c4ccc(NCC5CCOCC5)c([N+](=O)[O-])c4)c(Oc4cnc5[nH]ccc5c4)c3)CC2)=C(c2ccc(Cl)cc2)C1 [Venetoclax] (first compound max 1 µM, 7x7, partner max 1 µM) | 0.291 | 0.282 | 0.121 | 0.302 | 1 | 0.0971 | 0.248 | 0.193 | 0.503 | 0.987 | 0.903 | 0.544 | 0.262 | 0.188 | 0.173 | 0.929 | 0.116 | -0.0284 | 0.0963 | 0.0217
12 | CC1(C)CCC(CN2CCN(c3ccc(C(=O)NS(=O)(=O)c4ccc(NCC5CCOCC5)c([N+](=O)[O-])c4)c(Oc4cnc5[nH]ccc5c4)c3)CC2)=C(c2ccc(Cl)cc2)C1 [Venetoclax] + C1CN(CCC1(C(=O)N[C@@H](CCO)C2=CC=C(C=C2)Cl)N)C3=NC=NC4=C3C=CN4 [Capivasertib] (first compound max 1 µM, 7x7, partner max 3 µM) | 0.232 | 0.663 | 0.227 | 0.177 | 0.936 | 0.0815 | 0.273 | 0.512 | 0.086 | 0.695 | 0.0322 | 0.551 | 0.248 | 0.626 | 0.102 | 0.882 | 0.123 | -0.0198 | 0.0301 | 0.0534
13 | CC(=O)c1c(C)c2cnc(Nc3ccc(N4CCNCC4)cn3)nc2n(C2CCCC2)c1=O [Palbociclib] + Cn1cnc2c(F)c(Nc3ccc(Br)cc3Cl)c(C(=O)NOCCO)cc21 [Selumetinib] (first compound max 10 µM, 7x7, partner max 10 µM) | 0.574 | 0.512 | 0.186 | 0.5 | 0.448 | 0.193 | 0.218 | 0.199 | 0.277 | 0.71 | 0.128 | 0.336 | 0.107 | 0.414 | 0.056 | 0.261 | 0.334 | -0.0361 | 0.0029 | 0.0343
